Legend:
[1] = target: Integrin alpha4/beta1 (Homo sapiens); assay: Agonist activity at alpha4beta1 integrin receptor in human Jurkat E6.1 cells assessed as inhibition of vascular cell adhesion molecule 1-induced cell adhesion pre-incubated for 30 mins followed by 30 mins incubation in vascular cell adhesion molecule 1 coated wells by fluorescence plate reader assay
[2] = target: Integrin alpha4/beta1 (Homo sapiens); assay: Agonist activity at alpha4beta1 integrin receptor in human Jurkat E6.1 cells assessed as inhibition of fibronectin-induced cell adhesion pre-incubated for 30 mins followed by 30 mins incubation in fibronectin coated wells by fluorescence plate reader assay
[3] = target: Integrin alpha-L/beta-2 (LFA-1) (Homo sapiens); assay: Agonist activity at alphaLbeta2 integrin receptor in human Jurkat E6.1 cells assessed as inhibition of ICAM-1-induced cell adhesion pre-incubated for 30 mins followed by 30 mins incubation in ICAM-1 coated wells by fluorescence plate reader assay
[4] = target: Integrin alpha5/beta1 (Homo sapiens); assay: Agonist activity at alpha5beta1 integrin receptor in human K562 cells assessed as inhibition of fibronectin-induced cell adhesion pre-incubated for 30 mins followed by 1 hr incubation in fibronectin coated wells by fluorescence plate reader assay

Row | EC50 [1] [µM] | EC50 [2] [µM] | EC50 [3] [µM] | EC50 [4] [µM] | SMILES
1 | > 5 | > 5 | > 5 |  | Cc1ccccc1NC(=O)N1C(=O)CC1CC(=O)NCC(=O)O (stereo not given)
2 |  |  | > 5 | > 5 | Cc1ccccc1NC(=O)N1C(=O)CC1CC(=O)O (stereo not given)

From BindingDB's records for doi:10.1021/acs.jmedchem.2c02098 (University of Bologna, 2023)
